{"source": "patent US20240393340A1", "about": "“PROGNOSIS AND PREDICTIVE BIOMARKERS AND BIOLOGICAL APPLICATIONS THEREOF” (INSTITUT GUSTAVE ROUSSY, priority 2013, published 2024)", "format_in_all_cases": "cell-based", "key": {"[1]": {"system": "SK-Mel28", "experiment": "Short-term growth-inhibition assay, PLX-4720 (Example 1)", "settings": "Homo sapiens, SK-MEL-28; SK-Mel28 cell line; read-out: half-maximum inhibitory concentration (IC50)", "method": "(§1) FIGS. 1A-1B: Short-term growth-inhibition assay of a panel of melanoma cell lines including BRAF (V600E) cell lines and an NRAS (Q61R) mutated cell line. FIG. 1A. Cells were treated with increasing concentrations of N-[3-[(5-Chloro-1H-pyrrolo[2,3-b]pyridin-3-yl)carbonyl]-2,4-difluorophenyl]-1-propanesulfonamide (PLX-4720) for 72 h and cell viability was determined using CellTiter-Blue by measuring the absorbance at 540 nm in a microplate reader. Error bars show data +standard error. Means were derived from four replicates (n=4). FIG. 1B. Long-term colony formation assay of the indicated cells. Cells were grown in the absence or presence of PLX-4720 at the indicated concentrations for 15-20 days. For each cell line, all dishes were fixed at the same time, stained and photographed.\n(§2) Cell proliferation was measured using a WST-1 reagent (Roche Applied Science, IN, USA). Melanoma cells were plated with 5000 cells per well in 96-well tissue culture plates. After 24 hours, the cells were treated with drugs or DMSO at the indicated concentrations, in triplicates. WST-1 reagent was added to the wells and incubated at 37° C. for 2 hours before and after the treatment period of 48 hours. The plates were then read at 450 nm on a Wallac Victor^3 1420 Multilabel Counter (Perkin Elmer, ON, Canada). Absorbance readings are expressed in terms of cell proliferation as percent of the control cells growth within the 48 hours of treatment.\n(§3) The inventors quantified the effect of exposing these cell lines to PLX-4720 on the half-maximum inhibitory concentration (IC50) (Table 1)."}, "[2]": {"system": "Mel10", "experiment": "Short-term growth-inhibition assay, PLX-4720 (Example 1)", "settings": "Mel10 cell line; read-out: half-maximum inhibitory concentration (IC50)", "method": "as §1, §2, §3"}, "[3]": {"system": "Mel888", "experiment": "Short-term growth-inhibition assay, PLX-4720 (Example 1)", "settings": "Mel888 cell line; read-out: half-maximum inhibitory concentration (IC50)", "method": "as §1, §2, §3"}, "[4]": {"system": "SK-Mel5", "experiment": "Short-term growth-inhibition assay, PLX-4720 (Example 1)", "settings": "Homo sapiens, SK-MEL-5; SK-Mel5 cell line; read-out: half-maximum inhibitory concentration (IC50)", "method": "as §1, §2, §3"}, "[5]": {"system": "A375", "experiment": "Short-term growth-inhibition assay, PLX-4720 (Example 1)", "settings": "Homo sapiens, A-375; A375 cell line; read-out: half-maximum inhibitory concentration (IC50)", "method": "as §1, §2, §3"}, "[6]": {"system": "ERK phosphorylation", "experiment": "Western blot analysis of total and phosphorylated proteins", "settings": "all tested cell lines"}}, "data": [{"smiles": "CCCS(=O)(=O)Nc1ccc(F)c(C(=O)c2c[nH]c3ncc(Cl)cc23)c1F", "note": "[PLX-4720, N-[3-[(5-Chloro-1H-pyrrolo[2,3-b]pyridin-3-yl)carbonyl]-2,4-difluorophenyl]-1-propanesulfonamide]", "values": [{"measurement": "IC50", "setting": "[1]", "value": 400, "unit": "nM"}, {"measurement": "IC50", "setting": "[2]", "value": "> 10000", "unit": "nM"}, {"measurement": "IC50", "setting": "[3]", "value": 100, "unit": "nM"}, {"measurement": "IC50", "setting": "[4]", "value": 1500, "unit": "nM"}, {"measurement": "IC50", "setting": "[5]", "value": 400, "unit": "nM"}, {"measurement": "ERK phosphorylation downstream of BRAF", "setting": "[6]", "value": "inhibited ERK phosphorylation"}]}]}
